# Measured values as given in US20240132431A1, “METHOD FOR ALKYLATING ACIDIC FUNCTIONAL GROUP” (Chugai Seiyaku Kabushiki Kaisha, priority 2021, published 2024).
# Molecular target: T1, Bcl-2 protein (Recombinant Human Bcl-2 Protein) (Homo sapiens, UniProt P10415)
# T1 construct: purchased Novus NBP2-34889
# Experiment: Binding evaluation of mixture library compounds to Bcl-2 using AS-MS (affinity selection mass spectrometry)
# Details: for ASMS ratio (%) n = 1 / ASMS ratio (%) n = 2: ASMS Ratio(%)=(A−C)/B×100; for ASMS ratio (%) n = 1: replicate n = 1; for ASMS ratio (%) n = 2: replicate n = 2
# Summary of the method: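 ASMS Ratio (%) was calculated as (A−C)/B×100, where A is the protein sample after SEC, B the protein-free sample without SEC and C the protein-free sample after SEC. Each compound was at […] in a 1200-member pool with 20 μM Bcl-2, incubated 1 h at 23° C.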
# [1] = AS-MS on the mixture of 1200 library compounds
# [2] = AS-MS, mixture of 1200 compounds, Bcl-2
# T1 sequence (P10415 whole entry): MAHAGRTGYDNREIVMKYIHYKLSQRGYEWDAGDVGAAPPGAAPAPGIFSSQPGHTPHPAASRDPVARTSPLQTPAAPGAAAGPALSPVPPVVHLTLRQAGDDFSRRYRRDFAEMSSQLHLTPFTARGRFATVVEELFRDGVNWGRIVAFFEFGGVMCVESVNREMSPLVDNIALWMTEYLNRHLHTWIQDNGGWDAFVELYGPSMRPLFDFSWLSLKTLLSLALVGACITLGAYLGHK
smiles,measurement,setting,value
"CCOc1cccc(C#Cc2cc(C(=O)N3CCN(c4ccc(C(=O)Nc5ccc(OC)cc5)nn4)CC3)cc(C(F)(F)F)c2)c1 [B1O019-01, 6-[4-[3-[2-(3-Ethoxyphenyl)ethynyl]-5-(trifluoromethyl)benzoyl]piperazin-1-yl]-N-(4-methoxyphenyl)pyridazine-3-carboxamide]",ASMS ratio (%) n = 1,[1],0.6%
same,ASMS ratio (%) n = 2,[1],0.2%
"CCOc1cccc(-c2cc(CN3CCN(c4ccc(C(=O)NS(=O)(=O)c5ccc(NCCSc6ccccc6)c(C(F)(F)F)c5)cc4)CC3)cc(OCC)c2)c1 [B2R055-01, 4-[4-[[3-Ethoxy-5-(3-ethoxyphenyl)phenyl]methyl]piperazin-1-yl]-N-[4-(2-phenylsulfanylethylamino)-3-(trifluoromethyl)phenyl]sulfonylbenzamide]",ASMS ratio (%),n = 1,−3.3%
same,ASMS ratio (%),n = 2,6.3%
CCOc1cccc(-c2csc(CN3CCN(c4ccc(C(=O)Nc5ccc(OC)cc5)cc4)CC3)c2)c1 [B1O067-01],ASMS ratio (%) n = 1,[1],0.0%
same,ASMS ratio (%) n = 2,[1],0.0%
"CCOc1cncc(-c2csc(C(=O)N3CCN(c4ccc(C(=O)NS(=O)(=O)c5ccc(NCCSc6ccccc6)c(C(F)(F)F)c5)nn4)CC3)c2)c1 [B2R002-01, 6-[4-[4-(5-Ethoxypyridin-3-yl)thiophene-2-carbonyl]piperazin-1-yl]-N-[4-(2-phenylsulfanylethylamino)-3-(trifluoromethyl)phenyl]sulfonylpyridazine-3-carboxamide]",ASMS ratio (%),n = 1,0.0%
same,ASMS ratio (%),n = 2,0.0%
"CCOc1cccc(-c2ccc(C(=O)N3CCN(c4ccc(C(=O)NS(=O)(=O)c5ccc(NCCSc6ccccc6)c([N+](=O)[O-])c5)cc4)CC3)c3ccccc23)c1 [B2Q035-01, 4-[4-[4-(3-Ethoxyphenyl)naphthalene-1-carbonyl]piperazin-1-yl]-N-[3-nitro-4-(2-phenylsulfanylethylamino)phenyl]sulfonylbenzamide]",ASMS ratio (%) n = 1,"AS-MS, mixture library, Bcl-2",9.9%
same,ASMS ratio (%) n = 2,"AS-MS, mixture library, Bcl-2",−13.7%
CCCNC(=O)c1ccc(N2CCN(Cc3ccc(-c4cncc(OCC)c4)cc3CC)CC2)cc1 [B1M075-01],ASMS ratio (%) n = 1,[2],77.3%
same,ASMS ratio (%) n = 2,[2],46.1%
"CCOc1cncc(-c2ccc(CN3CCN(c4ccc(C(=O)NS(=O)(=O)c5ccc(NCCSc6ccccc6)c(C(F)(F)F)c5)nn4)CC3)c(CC)c2)c1 [B2R076-01, 6-[4-[[4-(5-Ethoxypyridin-3-yl)-2-ethylphenyl]methyl]piperazin-1-yl]-N-[4-(2-phenylsulfanylethylamino)-3-(trifluoromethyl)phenyl]sulfonylpyridazine-3-carboxamide]",ASMS ratio (%),n = 1,3.9%
same,ASMS ratio (%),n = 2,19.7%
"CCOc1cccc(-c2cc(C(=O)N3CCN(c4ccc(C(=O)N(CC)CC)nn4)CC3)cc(C(F)(F)F)c2)c1 [B4J017-01, 6-[4-[3-(3-Ethoxyphenyl)-5-(trifluoromethyl)benzoyl]piperazin-1-yl]-N,N-diethylpyridazine-3-carboxamide]",ASMS ratio (%) n = 1,[1],−0.3%
same,ASMS ratio (%) n = 2,[1],−0.5%
"CCOc1cccc(-c2cc(CN3CCN(c4ccc(C(=O)NCC56CC7CC(CC(C7)C5)C6)nn4)CC3)cc(OC(F)(F)F)c2)c1 [B1A089-01, N-(1-Adamantylmethyl)-6-[4-[[3-(3-ethoxyphenyl)-5-(trifluoromethoxy)phenyl]methyl]piperazin-1-yl]pyridazine-3-carboxamide]",ASMS ratio (%) n = 1,[2],0.0%
"CCOc1cccc(-c2ccc(C(=O)N3CCN(c4ccc(C(=O)NS(=O)(=O)CC56CC7CC(CC(C7)C5)C6)cc4)CC3)c3ccccc23)c1 [B2A035-01, N-(1-Adamantylmethylsulfonyl)-4-[4-[4-(3-ethoxyphenyl)naphthalene-1-carbonyl]piperazin-1-yl]benzamide]",ASMS ratio (%) n = 1,"AS-MS, mixture library, Bcl-2",6.2%
same,ASMS ratio (%) n = 2,"AS-MS, mixture library, Bcl-2",−9.8%
"CCOc1cncc(-c2ccc(CN3CCN(c4ccc(C(=O)N(C)CC56CC7CC(CC(C7)C5)C6)nn4)CC3)cc2F)c1 [B3A078-01, N-(1-Adamantylmethyl)-6-[4-[[4-(5-ethoxypyridin-3-yl)-3-fluorophenyl]methyl]piperazin-1-yl]-N-methylpyridazine-3-carboxamide]",ASMS ratio (%) n = 1,[1],4.5%
same,ASMS ratio (%) n = 2,[1],−1.5%
"CCOc1cncc(-c2ccc(CN3CCN(c4ccc(C(=O)NCC(F)(F)F)nn4)CC3)cc2C)c1 [B1K074-01, 6-[4-[[4-(5-Ethoxypyridin-3-yl)-3-methylphenyl]methyl]piperazin-1-yl]-N-(2,2,2-trifluoroethyl)pyridazine-3-carboxamide]",ASMS ratio (%) n = 1,[2],0.0%
same,ASMS ratio (%) n = 2,[2],0.0%
"CCOc1cccc(-c2ccc(CN3CCN(c4ccc(C(=O)N(CC)CC)cc4)CC3)c3ccccc23)c1 [B4J065-01, 4-[4-[[4-(3-Ethoxyphenyl)naphthalen-1-yl]methyl]piperazin-1-yl]-N,N-diethylbenzamide]",ASMS ratio (%) n = 1,"AS-MS, mixture library, Bcl-2",0.0%
same,ASMS ratio (%) n = 2,"AS-MS, mixture library, Bcl-2",0.0%
"CCOc1cccc(C#Cc2ccccc2C(=O)N2CCN(c3ccc(C(=O)NCC45CC6CC(CC(C6)C4)C5)nn3)CC2)c1 [B1A007-01, N-(1-Adamantylmethyl)-6-[4-[2-[2-(3-ethoxyphenyl)ethynyl]benzoyl]piperazin-1-yl]pyridazine-3-carboxamide]",ASMS ratio (%) n = 1,[2],0.0%
"CCOc1cccc(-c2ccc(CN3CCN(c4ccc(C(=O)NS(=O)(=O)CC56CC7CC(CC(C7)C5)C6)cc4)CC3)c(OC)c2)c1 [B2A053-01, N-(1-Adamantylmethylsulfonyl)-4-[4-[[4-(3-ethoxyphenyl)-2-methoxyphenyl]methyl]piperazin-1-yl]benzamide]",ASMS ratio (%) n = 1,"AS-MS, mixture library, Bcl-2",0.0%
same,ASMS ratio (%) n = 2,"AS-MS, mixture library, Bcl-2",0.0%
"CCOc1cccc(-c2cnn(-c3cc(C(=O)N4CCN(c5ccc(C(=O)NS(C)(=O)=O)nn5)CC4)cc(C(F)(F)F)c3)c2)c1 [B2I021-01, 6-[4-[3-[4-(3-Ethoxyphenyl)pyrazol-1-yl]-5-(trifluoromethyl)benzoyl]piperazin-1-yl]-N-methylsulfonylpyridazine-3-carboxamide]",ASMS ratio (%) n = 1,"AS-MS, mixture library, Bcl-2",0.0%
same,ASMS ratio (%) n = 2,"AS-MS, mixture library, Bcl-2",0.0%
"CCOc1cncc(-c2ccc(C(=O)N3CCN(c4ccc(C(=O)NCC(F)(F)F)cc4)CC3)cc2C)c1 [B1K026-01, 4-[4-[4-(5-Ethoxypyridin-3-yl)-3-methylbenzoyl]piperazin-1-yl]-N-(2,2,2-trifluoroethyl)benzamide]",ASMS ratio (%) n = 1,[2],4.2%
same,ASMS ratio (%) n = 2,[2],0.2%
"CCOc1cncc(-c2cc(CN3CCN(c4ccc(C(=O)N(C)CC56CC7CC(CC(C7)C5)C6)nn4)CC3)cc(OCC)c2)c1 [B3A082-01, N-(1-Adamantylmethyl)-6-[4-[[3-ethoxy-5-(5-ethoxypyridin-3-yl)phenyl]methyl]piperazin-1-yl]-N-methylpyridazine-3-carboxamide]",ASMS ratio (%) n = 1,[1],−0.9%
same,ASMS ratio (%) n = 2,[1],4.4%
"CCCNC(=O)c1ccc(N2CCN(Cc3ccc(-c4cncc(OCC)c4)cc3CC)CC2)nn1 [B1M076-01, 6-[4-[[4-(5-Ethoxypyridin-3-yl)-2-ethylphenyl]methyl]piperazin-1-yl]-N-propylpyridazine-3-carboxamide]",ASMS ratio (%) n = 1,[2],0.5%
same,ASMS ratio (%) n = 2,[2],1.5%
"CCOc1cncc(-c2ccc(CN3CCN(c4ccc(C(=O)N(CC)CC)cc4)CC3)c3ccccc23)c1 [B4J066-01, 4-[4-[[4-(5-Ethoxypyridin-3-yl)naphthalen-1-yl]methyl]piperazin-1-yl]-N,N-diethylbenzamide]",ASMS ratio (%) n = 1,"AS-MS, mixture library, Bcl-2",0.0%
same,ASMS ratio (%) n = 2,"AS-MS, mixture library, Bcl-2",−1.5%
"CCOc1cccc(-c2ccccc2CCC(=O)N2CCN(c3ccc(C(=O)Nc4ccc(OC)cc4)nn3)CC2)c1 [B1O011-01, 6-[4-[3-[2-(3-Ethoxyphenyl)phenyl]propanoyl]piperazin-1-yl]-N-(4-methoxyphenyl)pyridazine-3-carboxamide]",ASMS ratio (%) n = 1,[1],0.0%
same,ASMS ratio (%) n = 2,[1],4.3%
"CCOc1cncc(-c2ccc(C(C)N3CCN(c4ccc(C(=O)NS(=O)(=O)CCC(F)(F)F)cc4)CC3)c(F)c2)c1 (stereo not shown) [B2N100-01, 4-[4-[1-[4-(5-Ethoxypyridin-3-yl)-2-fluorophenyl]ethyl]piperazin-1-yl]-N-(3,3,3-trifluoropropylsulfonyl)benzamide]",ASMS ratio (%),n = 1,0.0%
same,ASMS ratio (%),n = 2,0.0%
"CCOc1cncc(-c2cc(CN3CCN(c4ccc(C(=O)NS(=O)(=O)C(C)(C)C)nn4)CC3)cc(OC(C)C)c2)c1 [B2L084-01, N-tert-Butylsulfonyl-6-[4-[[3-(5-ethoxypyridin-3-yl)-5-propan-2-yloxyphenyl]methyl]piperazin-1-yl]pyridazine-3-carboxamide]",ASMS ratio (%),n = 1,−3.0%
same,ASMS ratio (%),n = 2,−1.9%
"CCOc1cncc(-c2csc(C(=O)N3CCN(c4ccc(C(=O)NS(C)(=O)=O)cc4)CC3)c2)c1 [B2I024-01, 4-[4-[4-(5-Ethoxypyridin-3-yl)thiophene-2-carbonyl]piperazin-1-yl]-N-methylsulfonylbenzamide]",ASMS ratio (%) n = 1,"AS-MS, mixture library, Bcl-2",0.0%
same,ASMS ratio (%) n = 2,"AS-MS, mixture library, Bcl-2",0.0%
